From article PMC9795544, “Identifying Novel Inhibitors for Hepatic Organic Anion Transporting Polypeptides by Machine Learning-Based Virtual Screening” (Journal of Chemical Information and Modeling, 2022)
“And” between values parts separate entries of the source, which are not always exact repeats. Equal values may be shown once. Read-outs that look alike come from different tables or passages of the source.

Legend:
Assay type in all cases: cell-based
OATP1B3 = molecular target: T1, OATP1B3 (Homo sapiens, UniProt Q9NPD5); test: Pyranine transport inhibition in A431 cells overexpressing OATP1B3
T1 construct: expressed in transfected cells; host or cells: A431 cells
T1 sequence (Q9NPD5 1-702): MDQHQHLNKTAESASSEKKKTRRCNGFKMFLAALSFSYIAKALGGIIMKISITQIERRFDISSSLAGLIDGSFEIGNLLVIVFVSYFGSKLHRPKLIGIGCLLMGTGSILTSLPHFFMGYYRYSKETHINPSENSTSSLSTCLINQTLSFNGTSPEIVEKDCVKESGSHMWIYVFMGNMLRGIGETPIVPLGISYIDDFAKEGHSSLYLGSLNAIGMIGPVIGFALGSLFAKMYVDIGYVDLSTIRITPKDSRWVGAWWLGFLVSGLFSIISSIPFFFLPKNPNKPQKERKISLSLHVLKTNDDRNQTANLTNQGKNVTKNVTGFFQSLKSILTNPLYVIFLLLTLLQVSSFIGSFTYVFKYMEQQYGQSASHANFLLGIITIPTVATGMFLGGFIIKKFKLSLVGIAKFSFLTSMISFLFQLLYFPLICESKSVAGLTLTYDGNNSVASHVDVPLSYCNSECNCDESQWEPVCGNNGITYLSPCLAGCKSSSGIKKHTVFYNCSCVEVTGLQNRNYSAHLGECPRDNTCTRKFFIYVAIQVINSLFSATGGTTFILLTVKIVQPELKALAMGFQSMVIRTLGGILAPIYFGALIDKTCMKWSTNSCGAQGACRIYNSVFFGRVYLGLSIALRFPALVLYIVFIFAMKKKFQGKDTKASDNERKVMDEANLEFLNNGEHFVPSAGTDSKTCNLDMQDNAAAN
Procedure: (§1) A431 cells overexpressing OATP1B1, OATP1B3, or OATP2B1 or their mock transfected controls were generated previously[30] and maintained in Dulbecco’s modified Eagle medium (DMEM, Gibco, Thermofisher Scientific, Waltham, MA, US) supplemented with 10% fetal bovine serum, 2 mM L-glutamine, 100 units/mL penicillin, and 100 μg/mL streptomycin. Expression and function of OATPs in the cell lines were checked regularly.
(§2) Interaction with OATP1B1, OATP1B3, or OATP2B1 was tested in an indirect transport assay using pyranine (8-hydroxypyrene-1,3,6-trisulfonic acid trisodium salt, H1529, Sigma, Merck, Budapest, Hungary) as the test substrate[31],[32] A431 cells overexpressing OATP1B1, OATP1B3, or OATP2B1 or their mock transfected controls were seeded on 96-well plates in a density of 8 × 10^4 cells per well in 200 μL of cell culture medium 1 day prior to the transport measurements. […] The transport reaction was started by the addition of 50 μL of uptake buffer containing pyranine in a final concentration of 10 μM (OATP1B1) or 20 μM (OATP1B3 and OATP2B1), and the cells were further incubated at 37 °C for 15 min (OATP1B1 and OATP2B1) or 30 min (OATP1B3). The reaction was stopped by removing the supernatant. After repeated washing with ice-cold PBS, fluorescence was determined in an Enspire plate reader (PerkinElmer, Waltham, MA) with excitation/emission wavelengths of 460/510 nm. OATP-dependent transport was calculated by extracting fluorescence measured in mock transfected cells and normalized to the fluorescence signal obtained in the absence of the tested compounds (100%). Experiments were repeated in at least three biological replicates.

OATP2B1 = molecular target: T2, OATP2B1 (Homo sapiens, UniProt O94956); test: Pyranine transport inhibition in A431 cells overexpressing OATP2B1
T2 construct: expressed in transfected cells; host or cells: A431 cells
T2 sequence (O94956 1-709): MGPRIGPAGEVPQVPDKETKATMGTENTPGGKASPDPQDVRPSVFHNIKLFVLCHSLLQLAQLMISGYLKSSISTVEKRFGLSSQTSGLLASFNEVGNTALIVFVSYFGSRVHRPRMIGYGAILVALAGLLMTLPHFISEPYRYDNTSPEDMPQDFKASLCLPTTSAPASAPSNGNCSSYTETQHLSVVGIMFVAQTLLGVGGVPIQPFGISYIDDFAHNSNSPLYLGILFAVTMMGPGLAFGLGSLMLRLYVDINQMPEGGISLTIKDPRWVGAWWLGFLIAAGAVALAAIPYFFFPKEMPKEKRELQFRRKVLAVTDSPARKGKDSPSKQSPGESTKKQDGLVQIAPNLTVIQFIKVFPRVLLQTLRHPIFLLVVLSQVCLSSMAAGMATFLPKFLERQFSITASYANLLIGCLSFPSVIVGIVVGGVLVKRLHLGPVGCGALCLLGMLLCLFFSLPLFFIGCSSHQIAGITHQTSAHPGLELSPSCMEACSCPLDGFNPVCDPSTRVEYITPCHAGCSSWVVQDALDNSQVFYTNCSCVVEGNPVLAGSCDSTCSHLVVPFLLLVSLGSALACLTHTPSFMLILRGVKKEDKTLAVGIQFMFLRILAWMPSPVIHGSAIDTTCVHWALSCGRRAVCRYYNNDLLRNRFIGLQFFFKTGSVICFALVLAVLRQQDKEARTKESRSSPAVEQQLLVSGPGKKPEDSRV
Procedure: as §1, §2

OATP1B1 = molecular target: T3, OATP1B1 (Homo sapiens, UniProt Q9Y6L6); test: Pyranine transport inhibition in A431 cells overexpressing OATP1B1; conditions: for IC50: read-out: IC50 (μM) OATP1B1
T3 construct: expressed in transfected cells; host or cells: A431 cells
T3 sequence (Q9Y6L6 1-691): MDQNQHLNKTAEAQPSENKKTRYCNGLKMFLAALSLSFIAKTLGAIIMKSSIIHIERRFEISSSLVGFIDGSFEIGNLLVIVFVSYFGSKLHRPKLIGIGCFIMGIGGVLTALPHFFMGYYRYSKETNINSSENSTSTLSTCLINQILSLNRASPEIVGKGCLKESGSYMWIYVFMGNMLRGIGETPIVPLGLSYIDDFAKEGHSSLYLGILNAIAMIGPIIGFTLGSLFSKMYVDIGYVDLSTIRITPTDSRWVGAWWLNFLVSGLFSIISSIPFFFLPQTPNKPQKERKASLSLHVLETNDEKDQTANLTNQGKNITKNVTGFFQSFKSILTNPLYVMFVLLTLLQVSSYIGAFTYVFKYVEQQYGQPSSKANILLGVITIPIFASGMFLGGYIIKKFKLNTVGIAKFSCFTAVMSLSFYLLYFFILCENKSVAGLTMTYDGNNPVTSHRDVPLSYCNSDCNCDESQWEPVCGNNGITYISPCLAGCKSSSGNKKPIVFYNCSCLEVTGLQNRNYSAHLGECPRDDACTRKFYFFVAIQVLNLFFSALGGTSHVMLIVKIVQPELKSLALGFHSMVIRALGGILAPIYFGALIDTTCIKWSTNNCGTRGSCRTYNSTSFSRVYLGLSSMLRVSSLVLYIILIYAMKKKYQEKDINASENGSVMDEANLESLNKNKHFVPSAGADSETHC
Procedure: as §1, §2

[1] = initial three-point screen (1, 10, 100 μM), category by concentration needed for 50% inhibition, pyranine 20 μM, 30 min, pH 5.5, read-out: IC50 (μM) OATP1B3
[2] = initial three-point screen (1, 10, 100 μM), category by concentration needed for 50% inhibition, pyranine 20 μM, 15 min, pH 5.5, read-out: IC50 (μM) OATP2B1
[3] = initial three-point screen (1, 10, 100 μM), category by concentration needed for 50% inhibition, pyranine 10 μM, 15 min, pH 5.5
[4] = initial three-point screen (1, 10, 100 μM), category by concentration needed for 50% inhibition, pyranine 20 μM, 30 min, pH 5.5
[5] = IC50 (μM) OATP1B3, initial three-point screen (1, 10, 100 μM), category by concentration needed for 50% inhibition, pyranine 20 μM, 30 min, pH 5.5
[6] = IC50 (μM) OATP2B1, initial three-point screen (1, 10, 100 μM), category by concentration needed for 50% inhibition, pyranine 20 μM, 15 min, pH 5.5

Row | SMILES | IC50 (OATP1B3; [1]) [µM] | IC50 (OATP2B1; [2]) [µM] | IC50 (OATP1B1; [3]) [µM] | IC50 (μM) OATP1B3 (OATP1B3; [4]) | IC50 (μM) OATP1B1 (OATP1B1; [3]) | other results
1 | N#Cc1c(NC(=O)COC(=O)CN2C(=O)NC3(CCc4ccccc43)C2=O)sc2c1CCCCC2 (stereo not drawn) [A2, O=C(COC(=O)CN1C(=O)NC2(CCc3ccccc23)C1=O)Nc4sc5CCCCCc5c4C#N] | 1 to 10 | 1 to 10 | 1 to 10 |  |  | 
2 | Cc1occc1-c1nnc(SCC(=O)c2ccc3c(c2)NC(=O)CO3)n1Cc1ccccc1 [A3, Cc1occc1c2nnc(SCC(=O)c3ccc4OCC(=O)Nc4c3)n2Cc5ccccc5] | > 10 | 1 to 10 | 1 to 10 |  |  | 
3 | Fc1ccccc1-c1cc(-c2ccccc2)c2c3c(sc2n1)CCCC3 [A4, Fc1ccccc1c2cc(c3ccccc3)c4c5CCCCc5sc4n2] |  | > 10 |  | no effect | no effect | 
4 | Fc1ccc(C2CC(c3cccs3)=NN2c2nc(-c3ccccc3)c3cc(Cl)ccc3n2)cc1 (stereo not drawn) [A5, Fc1ccc(cc1)C2CC(=NN2c3nc(c4ccccc4)c5cc(Cl)ccc5n3)c6cccs6] |  | > 10 |  | no effect | no effect | 
5 | O=C(CN1C(=O)NC(Cc2c[nH]c3ccccc23)C1=O)Nc1ccc(OCc2ccccc2)cc1 (stereo not drawn) [A6, O=C(CN1C(=O)NC(Cc2c[nH]c3ccccc23)C1=O)Nc4ccc(OCc5ccccc5)cc4] | > 10 | > 10 |  |  | no effect | 
6 | CC(C)(C)c1ncc(NC(=O)c2ccccc2-c2ncc(-c3ccccc3)o2)cn1 [A7, CC(C)(C)c1ncc(NC(=O)c2ccccc2c3oc(cn3)c4ccccc4)cn1] |  | 1 to 10 |  | Activated | no effect | 
7 | O=C(Cc1ccccc1[N+](=O)[O-])NCC1CC2c3ccccc3C1c1ccccc12 (stereo not drawn) [B4, [O-][N+](=O)c1ccccc1CC(=O)NCC2CC3c4ccccc4C2c5ccccc35] |  |  |  |  |  | IC50 (OATP1B3; [5]): 1 to 10 µM; IC50 (OATP1B3; full dose-response curve, eight concentrations, Hill1 fit, read-out: IC50 (μM) OATP1B3): ~10 µM; IC50 (OATP2B1; [6]): 1 to 10 µM; IC50 (OATP2B1; full dose-response curve, eight concentrations, Hill1 fit, read-out: IC50 (μM) OATP2B1): 2.4 µM and 2.37 µM; IC50 (OATP1B1; full dose-response curve, eight concentrations, Hill1 fit): ~10 µM; IC50 at 15 min (OATP1B1; human, pH 5.5): > 10 µM

Second part, led by results:

Row | IC50 (OATP1B3; [1]) [µM] | IC50 (OATP2B1; [2]) [µM] | IC50 (OATP1B1; [3]) [µM] | IC50 (μM) OATP1B3 (OATP1B3; [4]) | IC50 (μM) OATP1B1 (OATP1B1; [3]) | SMILES | other results
8 |  |  |  |  | no effect | Cc1ccc(NC(=O)C(Sc2nnc3n2CCCCC3)c2ccccc2)cc1Cl (stereo not drawn) [B2, Cc1ccc(NC(=O)C(Sc2nnc3CCCCCn23)c4ccccc4)cc1Cl] | IC50 (OATP1B3; [5]): > 10 µM; IC50 (OATP2B1; [6]): > 10 µM
9 | > 10 | 1 to 10 | > 10 |  |  | O=C(CC12CC3CC(CC(C3)C1)C2)NCC(=O)N1CCN(S(=O)(=O)c2ccccc2F)CC1 [B3, Fc1ccccc1S(=O)(=O)N2CCN(CC2)C(=O)CNC(=O)CC34CC5CC(CC(C5)C3)C4] | 
